Assay results: patent US20190374627A1, “TARGET PEPTIDES FOR CANCER THERAPY AND DIAGNOSTICS” (priority 2016, published 2019)
Square brackets hold non-standard residues; d marks the D form. Ends that are not written are not given here. pS = N[C@@H](COP(=O)(O)O)C(=O)O

Columns and labels:
[1] = system: expanded lymphocyte cultures from deceased donor livers, cirrhotic livers and HCC; assay: ICS for MHC-I-pP reactivity of liver-derived lymphocyte cultures after phosphopeptide-specific expansion; format: cell-based, human; conditions: for ppCTL response, Deceased Donor Liver Do 2 / ppCTL response, Deceased Donor Liver Do 3 / ppCTL response, Deceased Donor Liver Do 4 / ppCTL response, Deceased Donor Liver Do 6 / ppCTL response, End-stage Liver Cirrhosis IHL 11 / ppCTL response, End-stage Liver Cirrhosis IHL 12 / ppCTL response, End-stage Liver Cirrhosis IHL 13 / ppCTL response, End-stage Liver Cirrhosis IHL 15 / ppCTL response, HCC Distal HCC 1 / ppCTL response, HCC Tumor HCC 1 / ppCTL response, HCC Distal HCC 4 / ppCTL response, HCC Distal HCC 9 / ppCTL response, HCC Tumor HCC 9 / ppCTL response, HCC Distal HCC 12: pP-specifically expanded culture; for ppCTL response, HCC Distal HCC 1: HCC 1 Distal; for ppCTL response, HCC Tumor HCC 1: HCC 1 Tumor; for ppCTL response, HCC Distal HCC 4: HCC 4 Distal; for ppCTL response, HCC Distal HCC 9: HCC 9 Distal; for ppCTL response, HCC Tumor HCC 9: HCC 9 Tumor; for ppCTL response, HCC Distal HCC 12: HCC 12 Distal
[2] = system: expanded TIL / IHL cultures; assay: ICS for MHC-I-pP reactivity of liver-derived lymphocyte cultures after unspecific rapid expansion protocol (REP); format: cell-based, human
[3] = system: unexpanded lymphocyte cultures (CD8^+ T cells); assay: ICS for MHC-I-pP reactivity of lymphocyte cultures without expansion (Table 23, No Expansion); conditions: HH6
CD8^+ T cells (PBMCs) = assay: Intracellular cytokine staining (ICS) of PBMCs after 7 days of stimulation with MHC-I-pP (healthy donors, HH patients); format: cell-based, human; conditions: for Reactive CD8^+ T cell population, HH2: HH patient HH2; for Reactive CD8^+ T cell population, HH3: HH patient HH3; for Reactive CD8^+ T cell population, HH6: HH patient HH6; for Reactive CD8^+ T cell population, HH8: HH patient HH8; for Reactive CD8^+ T cell population, HD1: Healthy donor HD1; for Reactive CD8^+ T cell population, HD4: Healthy donor HD4; for Reactive CD8^+ T cell population, HD5: Healthy donor HD5
Experimental: From this, CD8^+ T cell responses against newly identified MHC class I-associated phosphopeptides in healthy individuals and patients with chronic liver disease were investigated. Twenty-one of the newly identified HCC-associated HLA-A*0201-restricted phosphopeptides were selected (see Table 17) for further immunological testing in HLA-A*0201 positive patients. MHC-I-pP-specific cytotoxic CD8^+ T cell responses (ppCTL) were assessed using intracellular cytokine staining (ICS) and several cytokines and surface markers were assessed in parallel. After 7 days of stimulation with the respective MHC-I-pP and no other cytokines, CD3- and CD8-expressing T cells were stained for at least two different cytokines (IFN-γ, TNF-α) and when required CD107a expression as a marker for their cytotoxic potential.
First, peripheral blood mononuclear cells (PBMCs) from healthy donors and patients with hereditary hemochromatosis (HH) were analyzed. HH is a chronic liver disease characterized by excessive intestinal absorption of dietary iron resulting in a pathological deposition of iron in the liver. PBMCs or lymphocytes from liver tissue were extracted and specifically stimulated with (phospho-) peptides for 7 days before intracellular cytokine staining (ICS). Doublets and dead cells, using a fixable viability dye, were excluded. Lymphocytes were gated on CD3^+ and CD8^+ double positive cells and were analysed for expression of IFNγ, TNFα-, and CD107a.

| Substance | Reactive CD8^+ T cells, pP-specific Expansion, Do2 [1] | Reactive CD8^+ T cells, pP-specific Expansion, Do4 [1] | Reactive CD8^+ T cells, pP-specific Expansion, HH6 [1] | ppCTL response, Deceased Donor Liver Do 2 [1] | ppCTL response, Deceased Donor Liver Do 3 [1] | ppCTL response, Deceased Donor Liver Do 4 [1] | ppCTL response, Deceased Donor Liver Do 6 [1] | ppCTL response, End-stage Liver Cirrhosis IHL 11 [1] | ppCTL response, End-stage Liver Cirrhosis IHL 12 [1] | ppCTL response, End-stage Liver Cirrhosis IHL 13 [1] | ppCTL response, End-stage Liver Cirrhosis IHL 15 [1] | ppCTL response, HCC Distal HCC 1 [1] | ppCTL response, HCC Tumor HCC 1 [1] | ppCTL response, HCC Distal HCC 4 [1] | ppCTL response, HCC Distal HCC 9 [1] | ppCTL response, HCC Tumor HCC 9 [1] | ppCTL response, HCC Distal HCC 12 [1] | Reactive CD8^+ T cells, Non-specific Expansion, Do2 [2] | Reactive CD8^+ T cells, Non-specific Expansion, Do4 [2] | Reactive CD8^+ T cells, Non-specific Expansion, HH6 [2] | also measured |
| --- | --- | --- | --- | --- | --- | --- | --- | --- | --- | --- | --- | --- | --- | --- | --- | --- | --- | --- | --- | --- | --- |
| KAFsPVRSV: ID2 phosphopeptide, HLA-A*0201 (KAF[pS]PVRSV; listed as Homo sapiens) | 0 (<0.25% reactive CD8^-+ T cells) | 0 (<0.25% reactive CD8^-+ T cells) | 0 (<0.25% reactive CD8^-+ T cells) | 1 (0.25-2.5% reactive CD8-+ T cells) | 0 (<0.25% reactive CD8-+ T cells) | 0 (<0.25% reactive CD8-+ T cells) | 0 (<0.25% reactive CD8-+ T cells) | 0 (<0.25% reactive CD8-+ T cells) | 0 (<0.25% reactive CD8-+ T cells) | 0 (<0.25% reactive CD8-+ T cells) | 0 (<0.25% reactive CD8-+ T cells) | 0 (<0.25% reactive CD8-+ T cells) | 0 (<0.25% reactive CD8-+ T cells) | 0 (<0.25% reactive CD8-+ T cells) | 0 (<0.25% reactive CD8-+ T cells) | 0 (<0.25% reactive CD8-+ T cells) | 0 (<0.25% reactive CD8-+ T cells) | 0 (<0.25% reactive CD8^-+ T cells) | 0 (<0.25% reactive CD8^-+ T cells) | 0 (<0.25% reactive CD8^-+ T cells) | Reactive CD8^+ T cells, No Expansion, HH6 [3]: 0 (<0.25% reactive CD8^-+ T cells); Reactive CD8^+ T cell population, HH2 (CD8^+ T cells (PBMCs)): 0 (<0.25% reactive CD8^-+ T cells); Reactive CD8^+ T cell population, HH3 (CD8^+ T cells (PBMCs)): 0 (<0.25% reactive CD8^-+ T cells); Reactive CD8^+ T cell population, HH6 (CD8^+ T cells (PBMCs)): 0 (<0.25% reactive CD8^-+ T cells); Reactive CD8^+ T cell population, HH8 (CD8^+ T cells (PBMCs)): 0 (<0.25% reactive CD8^-+ T cells); Reactive CD8^+ T cell population, HH11 (CD8^+ T cells (PBMCs); HH patient HH11): 0 (<0.25% reactive CD8^-+ T cells); Reactive CD8^+ T cell population, HD1 (CD8^+ T cells (PBMCs)): 0 (<0.25% reactive CD8^-+ T cells); Reactive CD8^+ T cell population, HD4 (CD8^+ T cells (PBMCs)): 0 (<0.25% reactive CD8^-+ T cells); Reactive CD8^+ T cell population, HD5 (CD8^+ T cells (PBMCs)): 0 (<0.25% reactive CD8^-+ T cells) |
| KIAsEIAQL: CASKIN2 phosphopeptide, HLA-A*0201 (KIA[pS]EIAQL; listed as Homo sapiens) | 0 (<0.25% reactive CD8^-+ T cells) | 0 (<0.25% reactive CD8^-+ T cells) | 0 (<0.25% reactive CD8^-+ T cells) | 0 (<0.25% reactive CD8-+ T cells) | 0 (<0.25% reactive CD8-+ T cells) | 1 (0.25-2.5% reactive CD8-+ T cells) | 1 (0.25-2.5% reactive CD8-+ T cells) | 0 (<0.25% reactive CD8-+ T cells) | 0 (<0.25% reactive CD8-+ T cells) | 0 (<0.25% reactive CD8-+ T cells) | 0 (<0.25% reactive CD8-+ T cells) | 0 (<0.25% reactive CD8-+ T cells) | 0 (<0.25% reactive CD8-+ T cells) | 0 (<0.25% reactive CD8-+ T cells) | 0 (<0.25% reactive CD8-+ T cells) | 0 (<0.25% reactive CD8-+ T cells) | 0 (<0.25% reactive CD8-+ T cells) | 1 (0.25-2.5% reactive CD8^-+ T cells) | 0 (<0.25% reactive CD8^-+ T cells) | 1 (0.25-2.5% reactive CD8^-+ T cells) | Reactive CD8^+ T cells, No Expansion, HH6 [3]: 1 (0.25-2.5% reactive CD8^-+ T cells); Reactive CD8^+ T cell population, HH2 (CD8^+ T cells (PBMCs)): 0 (<0.25% reactive CD8^-+ T cells); Reactive CD8^+ T cell population, HH3 (CD8^+ T cells (PBMCs)): 0 (<0.25% reactive CD8^-+ T cells); Reactive CD8^+ T cell population, HH6 (CD8^+ T cells (PBMCs)): 1 (0.25-2.5% reactive CD8^-+ T cells); Reactive CD8^+ T cell population, HH8 (CD8^+ T cells (PBMCs)): 0 (<0.25% reactive CD8^-+ T cells); Reactive CD8^+ T cell population, HD1 (CD8^+ T cells (PBMCs)): 0 (<0.25% reactive CD8^-+ T cells); Reactive CD8^+ T cell population, HD4 (CD8^+ T cells (PBMCs)): 0 (<0.25% reactive CD8^-+ T cells); Reactive CD8^+ T cell population, HD5 (CD8^+ T cells (PBMCs)): 0 (<0.25% reactive CD8^-+ T cells) |
